Measurements published in patent US8785470B2, “Heterocyclic compounds and uses thereof” (Infinity Pharmaceuticals, Inc., priority 2011, dated 2014).
Where two headings read alike, the source gives them in different places.

Columns and labels:
PI3Kα = biological target: T1, PI3Kα (Homo sapiens, UniProt P42336); assay: PI3-Kinase HTRF assay, PI3Kα; type: biochemical; settings: bins Greater than 10 μM and Greater than 1 μM to 10 μM; 10 μM ATP, PIP2 at 10 μM; read-out: IC50 P13Kα
T1 construct: purchased Millipore Corporation 14-602-K
Outline: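 Competitive time-resolved FRET readout of PIP3 formed from 10 μM PIP2 with 10 μM ATP, 1 h at room temperature, by each recombinant human isoform (α, β, γ, δ; 0.25-0.3 μg/ml). Compound (2% DMSO final) was preincubated 15 min with enzyme and substrate; IC50 fitted over 20 μM–0.1 nM, 12 points.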

PI3Kβ = biological target: T2, PI3Kβ (Homo sapiens, UniProt P42338); assay: PI3-Kinase HTRF assay, PI3Kβ; type: biochemical; settings: bins Greater than 10 μM and Greater than 1 μM to 10 μM; 10 μM ATP, PIP2 at 10 μM
T2 construct: purchased Millipore Corporation 14-603-K
Source text: A PI3-Kinase HTRF® assay kit (cat No. 33-016) purchased from Millipore Corporation was used to screen compounds provided herein. This assay used specific, high affinity binding of the GRPI pleckstrin homology (PH) domain to PIP3, the product of a Class 1A or 1B PI3 Kinase acting on its physiological substrate PIP2. During the detection phase of the assay, a complex was generated between the GST-tagged PH domain and biotinylated short chain PIP3. The biotinylated PIP3 and the GST-tagged PH domain recruited fluorophores (Streptavidin-Allophycocyanin and Europium-labeled anti-GST respectively) to form the fluorescence resonance energy transfer (FRET) architecture, generating a stable time-resolved FRET signal. The FRET complex was disrupted in a competitive manner by non-biotinylated PIP3, a product formed in the PI3 Kinase assay.
PI3 Kinase α, β, γ and δ activity was assayed using the PI3 Kinase HTRF® assay kit (catalogue No. 33-016) purchased from Millipore Corporation. Purified recombinant PI3Kα (catalogue No. 14-602-K), PI3Kβ (catalogue No. 14-603-K), PI3Kγ (catalogue No. 14-558-K) and PI3Kδ (catalogue No. 14-604-K) were obtained from Millipore Corporation. Purified recombinant PI3K enzyme was used to catalyze the phosphorylation of phosphatidylinositol 4,5-bisphosphate (PIP2 at 10 μM) to phosphatidylinositol 3,4,5-trisphosphate (PIP3) in the presence of 10 μM ATP. The assay was carried out in 384-well format and detected using a Perkin Elmer EnVision Xcite Multilabel Reader. Emission ratios were converted into percent inhibitions and imported into GraphPad Prism software. The concentration necessary to achieve inhibition of enzyme activity by 50% (IC50) was calculated using concentrations ranging from 20 μM to 0.1 nM (12-point curve). IC50 values were determined using a nonlinear regression model available in GraphPad Prism 5. […]

Balb/c splenic B cells = assay: B cell activation and proliferation assay; type: cell-based; settings: Mus musculus, read-out: B cell proliferation EC50
Outline: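 Read-out is metabolic activity by Alamar Blue reduction (5 h, 560Ex/590Em) after 72 h at 37° C, reported as IC50 or EC50. Compound (0.2% DMSO) was added 30 min before a cocktail holding 10 μg/ml LPS or 5 μg/ml F(ab′)2 anti-IgM with 2 ng/ml mouse IL4. Cells were purified Balb/c splenic B cells, 50.000 per well.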

[1] = system: phospho-AKT in RAW 264.7 cells (PI3Kγ); assay: PI3Kγ selective assay, phospho-AKT in RAW 264.7 cells; type: cell-based; settings: Mus musculus, RAW264.7; stimulated with C5a; ranges less than 100 nM and between 100 nM and 1 μM (given as 100-1000); read-out: IC50 for phospho-AKT, RAW 264.7 cell model
Source text: A compound's ability in selectively inhibiting PI3Kγ can be assessed using RAW264.7 macrophages. Briefly, serum-starved PAW264.7 cells are stimulated with a known GPCR agonist C5a. (See, e.g., Camps et al., Nature Medicine (2005) 11(9): 936-943). Cells can be treated with test compounds prior to, simultaneously with, or subsequent to the stimulation by C5a. RAW 264.7 cells respond to the complement component fragment C5a through activation of the C5a receptor, and the C5a receptor activates macrophages and induces cell migration. Test compounds' ability to inhibit C5a-mediated AKT phosphorylation is indicative of selective inhibition of PI3Kγ. Thus, by monitoring the reduction of phospho-AKT in stimulated RAW 264.7 cells (using for example, phospho-AKT antibodies), a compound's potential efficacy in selectively inhibiting PI3Kγ can be assessed.

[2] = system: phospho-AKT in RAJI cells (PI3Kδ); assay: PI3Kδ selective assay, phospho-AKT in RAJI cells; type: cell-based; settings: RAJI cells stimulated with anti-human IgM; read-out: IC50 for phospho-AKT, RAJI cell model
Source text: A compound's ability in selectively inhibiting PI3Kδ can be assessed using RAJI cells, i.e., B lymphocyte cells derived from lymphoma patients. Briefly, serum-starved RAJI cells are stimulated with anti-human IgM, thereby causing signaling through the B-cell receptors, as described in, for example, He et al., Leukemia Research (2009) 33: 798-802. B-cell receptor signaling is important for the activation, differentiation, and survival of B cells and certain B-cell derived cancers. Reduction of phospho-AKT is indicative of compounds that may inhibit B-cell proliferation and function in certain diseases. By monitoring the reduction of phospho-AKT in stimulated RAJI cells (using for example, phospho-AKT antibodies), a compound's potential efficacy in selectively inhibiting PI3Kδ can be assessed.

[3] = column bins 1 μM to 100 nM (given as 100-1000) and Less than 100 nM

T2 sequence (P42338 whole entry): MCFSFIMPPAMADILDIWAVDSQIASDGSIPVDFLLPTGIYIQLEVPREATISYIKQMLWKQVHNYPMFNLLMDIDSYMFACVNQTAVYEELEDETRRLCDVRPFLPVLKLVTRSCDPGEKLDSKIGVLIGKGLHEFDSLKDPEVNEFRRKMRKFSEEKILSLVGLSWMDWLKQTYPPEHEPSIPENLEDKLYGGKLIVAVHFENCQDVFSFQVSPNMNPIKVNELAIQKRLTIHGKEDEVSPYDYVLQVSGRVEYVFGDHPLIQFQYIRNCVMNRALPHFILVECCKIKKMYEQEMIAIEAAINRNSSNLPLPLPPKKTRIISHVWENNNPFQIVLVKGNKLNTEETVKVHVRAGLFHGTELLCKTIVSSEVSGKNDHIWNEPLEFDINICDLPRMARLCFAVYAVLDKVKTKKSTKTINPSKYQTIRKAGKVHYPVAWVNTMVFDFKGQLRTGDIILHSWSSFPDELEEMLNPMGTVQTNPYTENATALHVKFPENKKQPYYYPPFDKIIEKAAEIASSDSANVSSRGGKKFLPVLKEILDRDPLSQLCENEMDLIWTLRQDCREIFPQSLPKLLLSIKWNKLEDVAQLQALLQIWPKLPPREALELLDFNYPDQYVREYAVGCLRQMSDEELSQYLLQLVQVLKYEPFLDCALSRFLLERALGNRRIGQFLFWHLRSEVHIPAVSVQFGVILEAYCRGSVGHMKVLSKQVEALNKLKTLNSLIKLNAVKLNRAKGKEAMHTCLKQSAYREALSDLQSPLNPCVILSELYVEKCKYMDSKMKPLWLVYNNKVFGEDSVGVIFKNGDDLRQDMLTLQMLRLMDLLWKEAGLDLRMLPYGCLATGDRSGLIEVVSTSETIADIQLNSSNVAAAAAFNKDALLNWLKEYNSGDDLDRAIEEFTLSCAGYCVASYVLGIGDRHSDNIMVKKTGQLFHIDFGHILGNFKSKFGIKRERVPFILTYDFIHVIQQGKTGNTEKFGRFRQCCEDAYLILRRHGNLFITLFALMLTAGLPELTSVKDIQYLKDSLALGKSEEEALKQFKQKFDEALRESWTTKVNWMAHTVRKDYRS
T2 sequence (P27986 whole entry partner): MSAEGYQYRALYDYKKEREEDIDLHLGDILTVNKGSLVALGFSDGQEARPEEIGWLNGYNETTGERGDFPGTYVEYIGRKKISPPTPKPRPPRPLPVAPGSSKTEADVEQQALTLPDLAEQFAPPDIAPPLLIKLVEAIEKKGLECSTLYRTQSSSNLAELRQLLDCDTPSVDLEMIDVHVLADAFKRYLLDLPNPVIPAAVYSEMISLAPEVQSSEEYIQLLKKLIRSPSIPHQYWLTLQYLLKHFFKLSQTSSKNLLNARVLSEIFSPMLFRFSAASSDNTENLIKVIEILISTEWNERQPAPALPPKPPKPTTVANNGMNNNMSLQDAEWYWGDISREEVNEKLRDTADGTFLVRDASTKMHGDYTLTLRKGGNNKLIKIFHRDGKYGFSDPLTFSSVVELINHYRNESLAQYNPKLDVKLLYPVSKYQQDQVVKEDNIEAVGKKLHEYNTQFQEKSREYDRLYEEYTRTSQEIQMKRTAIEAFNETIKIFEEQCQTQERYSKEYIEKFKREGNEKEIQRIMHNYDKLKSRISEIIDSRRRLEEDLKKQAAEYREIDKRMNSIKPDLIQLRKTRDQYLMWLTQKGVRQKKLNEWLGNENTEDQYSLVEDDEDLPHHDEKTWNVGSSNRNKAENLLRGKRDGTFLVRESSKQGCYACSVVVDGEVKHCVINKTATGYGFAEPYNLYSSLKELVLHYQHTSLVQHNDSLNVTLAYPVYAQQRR
T1 sequence (P42336 whole entry): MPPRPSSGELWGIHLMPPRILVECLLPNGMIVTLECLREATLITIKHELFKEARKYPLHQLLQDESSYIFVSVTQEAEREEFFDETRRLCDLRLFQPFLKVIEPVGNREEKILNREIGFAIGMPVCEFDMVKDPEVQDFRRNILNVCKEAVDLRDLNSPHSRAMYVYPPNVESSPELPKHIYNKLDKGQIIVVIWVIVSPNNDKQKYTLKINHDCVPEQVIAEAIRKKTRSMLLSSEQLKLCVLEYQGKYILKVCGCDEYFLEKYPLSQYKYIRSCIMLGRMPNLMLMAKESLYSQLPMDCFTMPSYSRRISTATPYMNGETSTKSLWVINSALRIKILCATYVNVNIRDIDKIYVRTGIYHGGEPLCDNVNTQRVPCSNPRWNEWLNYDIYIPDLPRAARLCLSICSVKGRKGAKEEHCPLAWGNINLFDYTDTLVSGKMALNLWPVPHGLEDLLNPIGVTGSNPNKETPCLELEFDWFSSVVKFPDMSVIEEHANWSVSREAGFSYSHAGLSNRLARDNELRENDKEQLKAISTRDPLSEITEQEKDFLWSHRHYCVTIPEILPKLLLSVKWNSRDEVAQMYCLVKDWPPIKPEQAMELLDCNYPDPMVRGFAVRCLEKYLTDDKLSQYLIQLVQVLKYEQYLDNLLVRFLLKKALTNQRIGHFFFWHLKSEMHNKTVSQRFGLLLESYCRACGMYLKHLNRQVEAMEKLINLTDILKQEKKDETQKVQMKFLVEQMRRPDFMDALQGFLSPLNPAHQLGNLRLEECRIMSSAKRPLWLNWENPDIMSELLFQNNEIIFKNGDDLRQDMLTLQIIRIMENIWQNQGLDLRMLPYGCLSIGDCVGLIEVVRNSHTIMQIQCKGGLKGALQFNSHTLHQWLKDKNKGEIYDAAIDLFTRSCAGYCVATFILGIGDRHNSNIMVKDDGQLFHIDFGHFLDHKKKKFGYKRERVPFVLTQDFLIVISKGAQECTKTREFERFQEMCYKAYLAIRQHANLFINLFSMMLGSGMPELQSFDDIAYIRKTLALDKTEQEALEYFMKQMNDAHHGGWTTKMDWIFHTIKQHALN
T1 sequence (P27986 whole entry partner): as the sequence (P27986 whole entry partner) above

SMILES | IC50 (PI3Kα) | IC50 (PI3Kβ) | EC50 (Balb/c splenic B cells; [3]) | EC50 (Balb/c splenic B cells) | IC50 [1] | IC50 [2]
C[C@H](Nc1nc(N)ncc1C#N)c1cc2cccc(-c3cncc(C(F)(F)F)c3)c2c(=O)n1-c1ccccc1 [Compound 52] | 1 to 10 µM | 1 to 10 µM | < 0.1 µM | – | – | –
C[C@H](Nc1nc(N)ncc1C#N)c1nc2cccc(-c3cnn(C)c3)c2c(=O)n1-c1ccccc1 [Compound 61] | 1 to 10 µM | 1 to 10 µM | < 0.1 µM | – | – | –
Cc1cc(-c2cccc3nc([C@H](C)Nc4nc(N)ncc4C#N)n(-c4ccccc4)c(=O)c23)ccn1 [Compound 62] | 1 to 10 µM | 1 to 10 µM | < 0.1 µM | – | – | –
C[C@H](Nc1nc(N)ncc1C#N)c1nc2cccc(-c3ccnnc3)c2c(=O)n1-c1ccccc1 [Compound 66, (S)-2-amino-4-((1-(4-oxo-3-phenyl-5-(pyridazin-4-yl)-3,4-dihydroquinazolin-2-yl)ethyl)amino)pyrimidine-5-carbonitrile] | 1 to 10 µM | 1 to 10 µM | < 0.1 µM | – | – | –
C[C@H](Nc1nc(N)ncc1C#N)c1cc2cccc(-c3cnoc3)c2c(=O)n1-c1ccccc1 [Compound 74] | 1 to 10 µM | 1 to 10 µM | < 0.1 µM | – | – | –
C[C@H](Nc1nc(N)ncc1C#N)c1cc2cccc(-c3ccc4c(c3)OCO4)c2c(=O)n1-c1ccccc1 [Compound 94] | 1 to 10 µM | 1 to 10 µM | < 0.1 µM | – | – | –
C[C@H](Nc1nc(N)ncc1C#N)c1cc2cccc(-c3cncc(F)c3)c2c(=O)n1-c1ccccc1 [Compound 98] | 1 to 10 µM | 1 to 10 µM | < 0.1 µM | – | – | –
C[C@H](Nc1nc(N)ncc1C#N)c1cc2cccc(-c3cccc(S(N)(=O)=O)c3)c2c(=O)n1-c1ccccc1 [Compound 102] | 1 to 10 µM | 1 to 10 µM | < 0.1 µM | – | – | –
COc1ncc(-c2cccc3cc([C@H](C)Nc4nc(N)ncc4C#N)n(C4CC4)c(=O)c23)cn1 [Compound 105] | 1 to 10 µM | 1 to 10 µM | < 0.1 µM | – | – | –
COc1cc(-c2cccc3nc([C@H](C)Nc4nc(N)ncc4C#N)n(-c4ccccc4)c(=O)c23)ccn1 [Compound 116] | 1 to 10 µM | 1 to 10 µM | – | < 0.1 µM | – | –
C[C@H](Nc1nc(N)ncc1C#N)c1cc2ccccc2c(=O)n1-c1ccccc1 [Compound 125] | 1 to 10 µM | 1 to 10 µM | < 0.1 µM | – | – | –
C[C@H](Nc1nc(N)ncc1C#N)c1cc2cccc(-c3cccc(NS(C)(=O)=O)c3)c2c(=O)n1-c1ccccc1 [Compound 126] | 1 to 10 µM | 1 to 10 µM | < 0.1 µM | – | – | –
C[C@H](Nc1nc(N)ncc1C#N)c1cc2cccc(-c3cccc(NS(=O)(=O)N(C)C)c3)c2c(=O)n1-c1ccccc1 [Compound 127] | 1 to 10 µM | – | – | – | < 0.1 µM | –
C[C@H](Nc1nc(N)ncc1-c1cccc(S(=O)(=O)N2CCCCC2)c1)c1cc2cccc(Cl)c2c(=O)n1-c1ccccc1 [Compound 157] | – | – | – | – | < 0.1 µM | < 0.1 µM
C[C@H](Nc1nc(N)ncc1C#N)c1cc2cccc(-c3ccc(NS(C)(=O)=O)cc3)c2c(=O)n1-c1ccccc1 [Compound 167] | 1 to 10 µM | 1 to 10 µM | < 0.1 µM | – | – | –
C[C@H](Nc1nc(N)ncc1C#N)c1cc2cccc(-c3ccc(=O)n(C)c3)c2c(=O)n1-c1ccccc1 [Compound 183] | 1 to 10 µM | 1 to 10 µM | < 0.1 µM | – | – | –
C[C@H](Nc1nc(N)ncc1C#N)c1cc2cccc(-c3ccnc(N)c3)c2c(=O)n1-c1ccccc1 [Compound 187] | 1 to 10 µM | 1 to 10 µM | < 0.1 µM | – | – | –
C[C@H](Nc1nc(N)ncc1C#N)c1cc2cccc(-c3cncc(S(C)(=O)=O)c3)c2c(=O)n1-c1ccccc1 [Compound 189] | 1 to 10 µM | 1 to 10 µM | < 0.1 µM | – | – | –
C[C@H](Nc1nc(N)ncc1C#N)c1cc2cccc(-c3c[nH]nn3)c2c(=O)n1-c1ccccc1 [Compound 196] | 1 to 10 µM | 1 to 10 µM | < 0.1 µM | – | – | –
C[C@H](Nc1nc(N)ncc1C#N)c1cc2cccc(C#CCCC(=O)N3CCCC3)c2c(=O)n1-c1ccccc1 [Compound 207] | 1 to 10 µM | 1 to 10 µM | < 0.1 µM | – | – | –
C[C@H](Nc1nc(N)ncc1-c1nccs1)c1cc2cccc(Cl)c2c(=O)n1-c1ccccc1 [Compound 224] | 1 to 10 µM | 1 to 10 µM | < 0.1 µM | – | – | –
CCn1cc(-c2cccc3cc([C@H](C)Nc4nc(N)ncc4C#N)n(-c4ccccc4)c(=O)c23)ccc1=O [Compound 230] | 1 to 10 µM | 1 to 10 µM | < 0.1 µM | – | – | –
C[C@H](Nc1nc(N)ncc1C#N)c1cc2cccc(-c3ccc(=O)n(CC4CC4)c3)c2c(=O)n1-c1ccccc1 [Compound 232] | 1 to 10 µM | 1 to 10 µM | < 0.1 µM | – | – | –
CC(C)n1cc(-c2cccc3cc([C@H](C)Nc4nc(N)ncc4C#N)n(-c4ccccc4)c(=O)c23)ccc1=O [Compound 234] | 1 to 10 µM | 1 to 10 µM | < 0.1 µM | – | – | –
C[C@H](Nc1nc(N)ncc1C#N)c1cc2cccc(Cl)c2c(=O)n1C [Compound 276] | – | – | – | – | < 0.1 µM | –
C[C@H](Nc1nc(N)ncc1C#N)c1cc2cccc(Cl)c2c(=O)n1C1CCCCC1 [Compound 300] | 1 to 10 µM | 1 to 10 µM | < 0.1 µM | – | – | –
C[C@H](Nc1nc(N)ncc1C#N)c1cc2cccc(-c3ccnc(NS(C)(=O)=O)c3)c2c(=O)n1-c1ccccc1 [Compound 443] | 1 to 10 µM | 1 to 10 µM | < 0.1 µM | – | – | –
